Patent publication EP4703359A1 (Shanghai Simr Biotechnology Co., Ltd., priority 2023, dated 2024)

Legend:
α2-GABAA receptor [1] = target: T1, α2-GABAA receptor (Homo sapiens, UniProt P18507+P47869); test: Radioactive ligand (3H-flunitrazepam) competitive binding assay, BZD site of membrane proteins of α2-GABAAR-HEK293 cells; conditions: competition with 1 nM 3H-flunitrazepam; HEK293 membranes expressing α2, β3, γ2 subunits; Ki calculated from IC50; read-out: α2 Ki
T1 construct: expressed in transfected cells

α2-GABAA receptor [2] = target: T1, α2-GABAA receptor; test: Whole-cell patch-clamp electrophysiology, positive allosteric modulatory activity in α2-GABAAR-HEK293 cells; format: cell-based; conditions: compound 100 nM; GABA 0.10 to 0.11 µM (approximately EC7-8); normalized to reference compound CVL-865 (= 100%); read-out: α2-GABAAR Positive allosteric modulatory activity
Summary of the method: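 HEK293 cells stably co-expressing α2β3γ2 GABAA receptor, whole-cell patch clamp at -60 mV. Compounds at 100 nM final applied with GABA 0.10–0.11 µM (~EC7-8) after GABA-only current stabilized. […]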

CCCNC(=O)c1nc2c(-c3cccnc3OC)cccn2c1N [Example 82, 3-Amino-8-(2-methoxypyridin-3-yl)-N-propylimidazo[1,2-a]pyridine-2-carboxamide]
Ki (α2-GABAA receptor [1]): 22.3 nM
Emax at 0.1 µM (α2-GABAA receptor [2]): 93%

CCCNC(=O)c1nc2c(-c3cnccc3OC)cccn2c1N [Example 85, 3-Amino-8-(4-methoxypyridin-3-yl)-N-propylimidazo[1,2-a]pyridine-2-carboxamide]
Ki (α2-GABAA receptor [1]): 17.2 nM
Emax at 0.1 µM (α2-GABAA receptor [2]): 100%

CCCNC(=O)c1nc2c(-c3cc(C(F)F)ccc3OC)cccn2c1N [Example 67, 3-Amino-8-(5-(difluoromethyl)-2-methoxyphenyl)-N-propylimidazo[1,2-a]pyridine-2-carboxamide]
Ki (α2-GABAA receptor [1]): 15 nM
Emax at 0.1 µM (α2-GABAA receptor [2]): 138%

CCCNC(=O)c1nc2c(-c3c(F)ccc4c3oc(=O)n4C)cccn2c1N [Example 105, 3-Amino-8-(6-fluoro-3-methyl-2-oxo-2,3-dihydrobenzo[d]oxazol-7-yl)-N-propylimidazo [1,2-a] pyridine-2-carboxamide]
Ki (α2-GABAA receptor [1]): 39.6 nM
Emax at 0.1 µM (α2-GABAA receptor [2]): 160%

COc1cccc(F)c1-c1cccn2c(N)c(C(=O)NC3CCC3)nc12 [Example 7, 3-Amino-8-(2-fluoro-6-methoxyphenyl)-N-cyclobutylimidazo[1,2-a]pyridine-2-carboxamide]
Ki (α2-GABAA receptor [1]): 14.9 nM
Emax at 0.1 µM (α2-GABAA receptor [2]): 52%

CCCNC(=O)c1nc2c(-c3cccc(F)c3)cccn2c1N [Example 46, 3-Amino-8-(3-fluorophenyl)-N-propylimidazo[1,2-a]pyridine-2-carboxamide]
Ki (α2-GABAA receptor [1]): 18.7 nM
Emax at 0.1 µM (α2-GABAA receptor [2]): 50%
